# Tests used:
# [1] = tested on: Ninety-two cancer cell lines; test: In vitro modeling of clinical dosing schema, AZA with CBDCA or ABX, cancer cell line panel; type: cell-based; conditions: other experiments; some cell lines
# Description: DNA hypomethylation (e.g., LINE-1, p16) was measured 72 hours after AZA treatment alone or in combination with CBDCA or ABX. p16 (mRNA) re-expression was determined 72 hours after AZA treatment alone or in combination with CBDCA or ABX. Ninety-two cancer cell lines were tested in order to identify specific tumor types that become sensitized to CBDCA or ABX after treatment with AZA (bladder cancer n=8; head and neck cancer n=8, breast cancer n=21; lung cancer n=35; pancreatic cancer n=7; ovarian cancer n=7; and melanoma n=6).
# [2] = tested on: DNA methylation, hypermethylated loci (beta>0.7); test: Infinium Methylation27 Array, PBMC DNA of patients; type: in vivo, human; conditions: patients dosed with 200 mg oral AZA alone (Arm C) or with CBDCA (Arm A) or ABX (Arm B); Days 1, 8, 15 of 21-day cycle
# Description: DNA methylation is employed as a biomarker to monitor responses in patients treated with azacitidine in the clinical studies described herein. Analysis is performed with an Infinium Assay (commercially available from Illumina, Inc., San Diego, Calif.). The Infinium Assay combined with BeadChips allows large-scale interrogation of variations in the human genome. For example, the Infinium HumanMethylation27 BeadChip enables interrogation of 27,578 CpG loci, covering over 14,000 genes. […]
# The assay for methylation is used to detect methylation status at individual CpG loci by typing bisulfite-converted DNA. […] Blood samples were collected and DNA methylation was analyzed in parallel. In other embodiments, bone marrow samples are collected and DNA methylation analyzed in parallel.
# In one embodiment, PBMC DNA was used for assessing changes in DNA methylation, using assays such as LINE-1 methylation, %5mdC mass spec, Infinium® Methylation27 Array, and Infinium® Methylation450 Array. In one study, DNA methylation (LINE-1) in PBMC DNAs from patients in clinical studies described in Example 1, dosed with 200 mg oral AZA alone or in combination with CDBCA or ABX, was measured on Days 1, 8, and 15 of 21-day cycle. […]
# [3] = tested on: DNA methylation (LINE-1 and gene-specific); test: DNA methylation analysis (LINE-1 or EpiTech Methyl qPCR), MDA-MB-231 xenograft tumors; type: in vivo; conditions: MDA-MB-231 tumors in mice, 1 or 3 mg/kg AZA ip daily; further reduction with additional days of dosing
# Description: (§1) The effects of AZA dose and schedule (short-term vs. extended) on pharmacodynamic markers such as DNMT1 depletion, DNA methylation, and DNA damage were evaluated in MDA-MB-231 breast cancer cells in vitro and in vivo. For in vitro experiments, MDA-MB-231 cells were treated daily with 0.1 or 0.3 μM AZA for up to 12 days, and harvested at various times during treatment, as well as up to 12 days following treatment. For in vivo studies, MDA-MB-231 tumor-bearing mice were dosed (ip) with 1 or 3 mg/kg AZA daily for 3, 7, 14, 21, or 28 days and tumors were harvested during and at several time points after the dosing period. DNA and cell lysates were prepared (from cell pellets or xenograft tumors) for DNA methylation analysis (LINE-1 or EpiTech Methyl qPCR assay) and DNMT1/γH2AX western blotting, respectively.
# DNMT1 [4] = test: DNMT1 western blotting, MDA-MB-231 cells in vitro; type: cell-based
# Description: as §1
# DNA methylation in PBMCs = test: DNA hypomethylation in PBMCs of patients (summary); type: in vivo, human
# Description: (§2) In one embodiment, PBMC DNA was used for assessing changes in DNA methylation, using assays such as LINE-1 methylation, %5mdC mass spec, Infinium® Methylation27 Array, and Infinium® Methylation450 Array. In one study, DNA methylation (LINE-1) in PBMC DNAs from patients in clinical studies described in Example 1, dosed with 200 mg oral AZA alone or in combination with CDBCA or ABX, was measured on Days 1, 8, and 15 of 21-day cycle. […] In one study, %5mdC in PBMC DNAs from patients in clinical studies described in Example 1, dosed with 200 mg oral AZA alone or in combination with CDBCA or ABX, was measured on Days 1, 8, and 15 of 21-day cycle. In one study, methylation levels were measured on Days 1, 8, and 15 of 21-day cycle using Infinium® Methylation27 Array (patients dosed with 200 mg oral AZA alone or in combination with CDBCA or ABX) and density profiles of average methylation levels were analyzed. […] In another study, methylation levels were measured using Infinium® Methylation450 Array (patients dosed with 300 mg oral AZA alone or in combination with CDBCA or ABX) and density profiles of average methylation levels were analyzed, as well as % change of hypermethylated loci (beta>0.7) upon treatment.
# γH2AX = γH2AX western blotting (DNA damage), MDA-MB-231 xenograft tumors; type: in vivo; conditions: MDA-MB-231 tumor-bearing mice
# Description: as §1
# DNMT1 [5] = test: DNMT1 western blotting, MDA-MB-231 xenograft tumors; type: in vivo, mice
# Description: as §1
# Nasopharyngeal cancer = test: Clinical study Part 1, oral azacitidine alone or with CBDCA or ABX, tumor response; type: in vivo, human; conditions: Part 1 Arm C
# Description: The study was an open-label, 3-arm, multi-center, dose-escalation study of oral azacitidine in combination with either CBDCA (Arm A), ABX (Arm B), or as a single agent (Arm C) in subjects with relapsed or refractory solid tumors (Part 1). Subjects were assigned to each study Arm at the discretion of the investigator. A minimum of 6 subjects were assigned to each study Arm when a dose level (DL) became open for enrollment. If one (1) or zero (0) out of six (6) subjects in a DL experienced dose limiting toxicity (DLT), the dose of oral azacitidine was escalated in the successive DL. A limited number of oral azacitidine DLs were explored to arrive at a recommended Part 2 dose (RP2D) of oral azacitidine for each study Arm. The RP2D may be the MTD, MAD, or a lower dose depending on the tolerability, PK, and PD observed. Part 1 was followed by expansion cohorts at the RP2D in specific tumor types (Part 2). Approximately 60 subjects were enrolled in Part 1, and approximately 100 subjects were enrolled in Part 2. Safety, efficacy, pharmacokinetics, and pharmacodynamics data were evaluated.
# Subjects are evaluated for tumor response after Cycle 2 and every other Cycle thereafter. […]
# In one embodiment, in Part 1, Arm C of the study, 5-azacytidine was dosed from Day 1 to Day 21, in a 21-day cycle (continuous). Safety and PD were analyzed. […]
# higher-risk MDS = conditions: Phase III study, administered subcutaneously, subjects with higher-risk MDS; cited from earlier work
# [6] = PK exposure of AZA in patients; type: in vivo; conditions: human, plasma; oral AZA, patients of the clinical study; read-out: AUCinf of patients in whom decreases in DNA methylation were observed
# Description: For oral azacitidine, CBDCA, and ABX (administered alone and in combination), the following plasma PK parameters are assessed: (1) maximum observed concentration in plasma (Cmax); (2) area under the concentration-time curve (AUC); (3) time to maximum concentration (tmax); (4) terminal half-life (t1/2); (5) apparent total body clearance (CL/F); and (6) apparent volume of distribution (Vz/F). To evaluate the PD effects of oral azacitidine in blood, plasma, and tumor tissue, the following endpoints are collected: (1) change from baseline (Cycle 1 Day 1 pre-dose) in DNA methylation (global and gene-specific assays) in whole blood and tumor tissue (as available in Part 1); (2) reduction from baseline (Cycle 1 Day 1 predose) in DNMT1 protein levels in tumor tissue (as available in Part 1).
# [7] = tested on: DNA methylation (LINE-1 and gene-specific); test: DNA methylation analysis (LINE-1 or EpiTech Methyl qPCR), MDA-MB-231 cells in vitro; type: cell-based
# Description: as §1
# LINE-1 methylation = test: DNA methylation (LINE-1) in PBMC DNAs from patients; type: in vivo, human; conditions: patients of Example 1, Arm C, 200 mg oral AZA; Days 1, 8 and 15 of 21-day cycle
# Description: as §2
Compound,Interaction of DAC (decitabine) priming with ABX [1],Interaction of DAC (decitabine) priming with CBDCA [1],"DNA methylation in PBMCs upon treatment (hypermethylated loci, beta>0.7) [2]",DNA methylation (LINE-1 and gene-specific) [3],Time for DNMT1 protein levels to return to basal levels after AZA treatment was halted (DNMT1 [4]; MDA-MB-231 cells in vitro),DNMT1 protein level (DNMT1 [4]; MDA-MB-231 cells treated daily with 0.1 or 0.3 μM AZA for up to 12 days),Patients with DNA hypomethylation in PBMCs / patients analyzed (DNA methylation in PBMCs; 200 mg oral AZA alone (Arm C) or with ABX (Arm B) or CBDCA (Arm A)),Patients with DNA hypomethylation in PBMCs / patients analyzed (DNA methylation in PBMCs; 300 mg oral AZA alone (Arm C) or with CBDCA (Arm A)),Days of dosing until DNA damage was observed in tumors (γH2AX; 1 mg/kg AZA ip daily),Days of dosing until DNA damage was observed in tumors (γH2AX; 3 mg/kg AZA ip daily),"Time to DNMT1 protein depletion post in vivo dose (DNMT1 [5]; MDA-MB-231 tumor-bearing mice, 1 or 3 mg/kg AZA ip)","DNMT1 protein level (DNMT1 [5]; MDA-MB-231 tumor-bearing mice, 1 or 3 mg/kg AZA ip daily)",Time for DNMT1 protein levels to return to basal levels after AZA treatment was halted (DNMT1 [5]; MDA-MB-231 tumors in mice),"Time on Study (Nasopharyngeal cancer; AZA dose 300 mg single agent, nasopharyngeal patient)","Tumor response (Nasopharyngeal cancer; 5-azacytidine 300 mg Day 1 to Day 21, 21-day cycle, nasopharyngeal cancer)",Survival and time to AML transformation or death (higher-risk MDS),AUC(0-inf) [6],Time for DNA methylation to return to basal levels upon AZA removal ([7]; MDA-MB-231 cells in vitro),"DNA methylation (LINE-1 and gene-specific) ([7]; MDA-MB-231 cells, 0.1 or 0.3 μM AZA daily, further reduction with additional days of dosing)",DNA methylation (LINE-1) in PBMC DNAs (LINE-1 methylation)
"Nc1ncn([C@H]2C[C@H](O)[C@@H](CO)O2)c(=O)n1 [DAC, 5-aza-2′-deoxycytidine]",antagonism,additivity or synergy,,,,,,,,,,,,,,,,,,
"Nc1ncn([C@@H]2O[C@H](CO)[C@@H](O)[C@H]2O)c(=O)n1 [AZA, 4-amino-1-β-D-ribofuranosyl-1,3,5-triazin-2(1H)-one]",,,decreases in hypermethylated loci,dose-dependent decrease,3 to 4 days,dose-dependent depletion,5/6,3/3,21 days,14 days,≤ 8 h,dose-dependent depletion,3 to 4 days,>3 mo,Partial responses,significantly prolonged survival,> 350 ng·h/mL,≤ 8 days,dose-dependent decrease,Decreases in LINE-1 methylation were observed for two patients

# Source: patent US9693987B2, “Methods for treating cancers using oral formulations of cytidine analogs” (CELGENE CORPORATION, priority 2011, dated 2017)
